Test results taken from patent US20190031618A1, “BENZIMIDAZOLE DERIVATIVES USEFUL AS CB-1 INVERSE AGONISTS” (Janssen Pharmaceutica NV, priority 2015, published 2019).
Like-named read-outs stand apart in the source and are kept apart here.

How the values were obtained:
[1] = Mouse Fast PK/BBB: plasma and brain concentration; type: in vivo, Male C57bl/6j mice; conditions: mice; for concentration at 1 h: male, C57bl/6j, mouse, brain, read-out: Brain Mean Conc. ± Std. Dev; for Brain Mean Conc. ± Std. Dev: 1 hr
[2] = Mouse Fast PK/BBB: plasma and brain concentration; type: in vivo, Male C57bl/6j mice; conditions: mice; for concentration at 4 h / concentration at 1 h: male, C57bl/6j, mouse; for concentration at 4 h / Brain Mean Conc. ± Std. Dev: 4 hr
Procedure: Male Sprague Dawley rats are ordered from Charles River (225-250 gm upon arrival). They are fed standard chow diet (Purina 5001) and housed 2 per cage. Male C57bl/6j mice are ordered from Charles River at 22-25 g and housed 3 per cage. They are fed standard chow (Purina 5001). All animals are housed in a temperature-controlled room with 12-hour light/dark cycle. Animals are given food and water ad libitum, except as noted.
Test compounds are administered by oral gavage (5 ml kg^−1 or 10 ml kg^−1).
Male C57bl/6j mice were dosed with test compounds at 20 or 30 mg/kg. Plasma was collected via retro-orbital bleeding at 1 hr and 4 hrs after dosing. Whole brain without cerebellum was collected at 4 hrs after dosing. Wet brain weight was recorded before freezing. Brains were homogenized in saline and sent for analysis for determination of concentration of test compound.
Representative compounds of formula (I) of the present invention were tested according to the procedure described above, with results as listed in Table BIO-2 below.

[3] = molecular target: Human CB2R (Cannabinoid receptor 2) (Homo sapiens, UniProt P34972); test: CB-2 in vitro cAMP (HTRF) assay; type: cell-based; conditions: HEK cells, cAMP HTRF, 250 nM forskolin; mean where tested more than once; read-out: CB2 HEK_cAMP EC50
Outline: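 HEK-293 cells stably expressing receptor, plated overnight at 4E5 cells/mL, tested with 1/3 serial dilutions of compound in HBSS/HEPES/BSA buffer with 0.5 mM IBMX and forskolin (diluted to 1.5 μM in buffer). cAMP measured by competitive HTRF immunoassay (d2-cAMP, cryptate anti-cAMP), signal inversely proportional to cAMP.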

[4] = brain (whole brain without cerebellum), dose 30 mg/kg oral, read-out: Brain Mean Conc. ± Std. Dev
[5] = plasma, dose 30 mg/kg oral, read-out: Plasma Mean Conc. ± Std. Dev
[6] = plasma, dose 20 mg/kg oral, read-out: Plasma Mean Conc. ± Std. Dev
[7] = brain (whole brain without cerebellum), dose 20 mg/kg oral, read-out: Brain Mean Conc. ± Std. Dev

Human CB2R (Cannabinoid receptor 2), sequence (P34972 whole entry): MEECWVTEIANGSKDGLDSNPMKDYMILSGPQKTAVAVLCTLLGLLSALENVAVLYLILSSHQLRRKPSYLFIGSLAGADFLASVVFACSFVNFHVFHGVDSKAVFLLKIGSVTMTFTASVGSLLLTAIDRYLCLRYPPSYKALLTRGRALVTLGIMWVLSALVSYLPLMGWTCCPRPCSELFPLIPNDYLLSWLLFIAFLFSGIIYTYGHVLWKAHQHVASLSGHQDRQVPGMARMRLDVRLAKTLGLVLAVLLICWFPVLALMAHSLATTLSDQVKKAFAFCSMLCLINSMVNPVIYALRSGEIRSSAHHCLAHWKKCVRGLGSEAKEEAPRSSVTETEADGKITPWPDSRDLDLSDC

| SMILES | concentration at 1 h ([1]; dose 30 mg/kg oral) [ng/mL] | concentration at 4 h [2, 4] [ng/mL] | concentration at 1 h [2, 5] [ng/mL] | concentration at 4 h [2, 5] [ng/mL] | EC50 [3] [µM] | Brain Mean Conc. ± Std. Dev ([1]; dose 30 mg/kg oral) | Brain Mean Conc. ± Std. Dev ([2]; dose 30 mg/kg oral) | Brain Mean Conc. ± Std. Dev ([1]; dose 20 mg/kg oral) | concentration at 1 h [2, 6] [ng/mL] | concentration at 4 h [2, 6] [ng/mL] | Brain Mean Conc. ± Std. Dev ([2]; dose 20 mg/kg oral) | concentration at 1 h ([1]; dose 20 mg/kg oral) [ng/mL] | concentration at 4 h [2, 7] [ng/mL] |
| --- | --- | --- | --- | --- | --- | --- | --- | --- | --- | --- | --- | --- | --- |
| O=C(O)c1cc(F)cc(CN2CCC(n3c(C4CC4)nc4ccc(C(c5ccc(Cl)cc5)c5ccc(Cl)cc5)cc43)CC2)c1 [Example 89] | 92.6 ± 20.4 | 129 ± 33.2 | 7190 ± 488 | 4430 ± 227 | 7.9 | – | – | – | – | – | – | – | – |
| O=C(O)c1ccc(F)c(CN2CCC(n3c(C4CC4)nc4ccc(C(c5ccc(Cl)cc5)c5ccc(Cl)cc5)cc43)CC2)c1 [Example 92] | 72.4 ± 11.1 | 89.2 ± 27.7 | 11400 ± 2020 | 5190 ± 277 | 5.19 | – | – | – | – | – | – | – | – |
| O=C(O)c1ccc(CN2CCC(n3c(C4CC4)nc4ccc(C(c5ccc(Cl)cc5)c5ccc(Cl)cc5)cc43)CC2)nc1 [Example 124] | – | – | 2020 ± 555 | 297 ± 107 | > 10 | BLOQ ± NA | BLOQ ± NA | – | – | – | – | – | – |
| O=C(O)c1cccc(CN2CCC(n3c(C4CC4)nc4ccc(C(c5ccc(Cl)cc5)c5ccc(Cl)cc5)cc43)CC2)n1 [Example 125] | – | – | 4490 ± 1010 | 390 ± 157 | 9.9 | BLOQ ± NA | BLOQ ± NA | – | – | – | – | – | – |
| O=C(O)c1ccc(CN2CCC(n3c(C4CC4)nc4ccc(C(c5ccc(Cl)cc5)c5ccc(Cl)cc5)cc43)CC2)o1 [Example 129] | – | – | 1370 ± 749 | 84.6 ± 62.9 | > 10 | BLOQ ± NA | BLOQ ± NA | – | – | – | – | – | – |
| O=C(O)c1cccc(CN2CCC(n3c(C4CC4)nc4ccc(C(c5ccc(Cl)cc5)c5ccc(Cl)cc5)cc43)CC2)c1 [Example 148] | 334 ± 108 | 417 ± 50 | 13500 ± 273 | 7750 ± 3100 | 4.93 | – | – | – | – | – | – | – | – |
| O=C(O)c1csc(S(=O)(=O)N2CCC(n3c(C4CC4)nc4ccc(C(c5ccc(Cl)cc5)c5ccc(Cl)cc5)cc43)CC2)c1 [Example 221] | – | – | – | – | 3.3 | – | – | BLOQ ± NA | 160 ± 69.7 | 33.8 ± 11.2 | BLOQ ± NA | – | – |
| O=C(O)c1ccc(S(=O)(=O)N2CCC(n3c(C4CC4)nc4ccc(C(c5ccc(Cl)cc5)c5ccc(Cl)cc5)cc43)CC2)o1 [Example 232] | – | – | 81.9 ± 22.7 | 7.11 ± 6.55 | 8.86 | BLOQ ± NA | BLOQ ± NA | – | – | – | – | – | – |
| O=C(O)c1cccc(S(=O)(=O)N2CCC(n3c(C4CC4)nc4ccc(C(c5ccc(Cl)cc5)c5ccc(Cl)cc5)cc43)CC2)c1 [Example 242] | – | – | – | – | 5.69 | – | – | BLOQ ± NA | 789 | 62.1 ± 20 | BLOQ ± NA | – | – |
| O=S(=O)(c1cccc(O)c1)N1CCC(n2c(C3CC3)nc3ccc(C(c4ccc(Cl)cc4)c4ccc(Cl)cc4)cc32)CC1 [Example 259] | – | – | – | – | > 10 | – | – | BLOQ ± NA | 1420 ± 489 | 436 ± 83 | BLOQ ± NA | – | – |
| O=C(O)c1ccc(S(=O)(=O)N2CCC(n3c(C4CC4)nc4ccc(C(c5ccc(Cl)cc5)c5ccc(Cl)cc5)cc43)CC2)cc1 [Example 276] | – | – | – | – | 2.61 | – | – | BLOQ ± NA | 227 ± 67.2 | 27.7 ± 13.1 | BLOQ ± NA | – | – |
| CCc1nc2ccc(C(c3ccc(Cl)cc3)c3ccc(Cl)cc3)cc2n1CC1CCN(S(=O)(=O)C(F)(F)F)CC1 [Example 315] | – | – | – | – | 5.4 | – | – | – | 2870 ± 441 | 785 ± 191 | – | 33.8 ± 5 | 48.4 ± 0.4 |
| O=S(=O)(N1CCC(Cn2c(C3CC3)nc3ccc(C(c4ccc(Cl)cc4)c4ccc(Cl)cc4)cc32)CC1)C(F)(F)F [Example 316] | – | – | – | – | 3.86 | – | – | – | 3980 ± 448 | 247 ± 36 | – | 22.9 ± 2.7 | 30.2 ± 5.2 |
| O=S(=O)(N1CCC(n2c(C3CCC3)nc3ccc(C(c4ccc(Cl)cc4)c4ccc(Cl)cc4)cc32)CC1)C(F)(F)F [Example 318] | – | – | – | – | > 10 | – | – | – | 5880 ± 1290 | 2130 ± 245 | – | 57.8 ± 14.8 | 69.4 ± 4.4 |
| COc1ccc(C(c2ccc(OC)cc2)c2ccc3nc(C4CCC4)n(C4CCN(S(=O)(=O)C(F)(F)F)CC4)c3c2)cc1 [Example 320] | – | – | – | – | > 10 | – | – | – | 2900 ± 245 | 1610 ± 207 | – | 122 ± 18.1 | 167 ± 9.4 |
| CCc1nc2ccc(C(c3ccc(Cl)cc3)c3ccc(Cl)cc3)cc2n1C1CCN(S(=O)(=O)C(F)(F)F)CC1 [Example 328] | – | – | – | – | > 14 | – | – | – | 2640 ± 337 | 1600 ± 109 | – | 39.1 ± 1.95 | 99.3 ± 13.3 |
| O=S(=O)(N1CCC(n2c(C3CC3)nc3ccc(C(c4ccc(Cl)cc4)c4ccc(Cl)cc4)cc32)CC1)C(F)(F)F [Example 335] | – | – | – | – | > 10 | – | – | – | 3940 ± 480 | 2260 ± 822 | – | 53.3 ± 14 | 104 ± 19 |
| CCc1nc2ccc(C(c3ccc(Cl)cc3)c3nccs3)cc2n1C1CCN(S(=O)(=O)C(F)(F)F)CC1 (stereo not drawn) [Example 400] | – | – | – | – | > 10 | – | – | – | 1550 ± 65.7 | 947 ± 191 | – | 362 ± 36.9 | 292 ± 61 |
